One experiment concerns HeLa. The experiment can be described thus: Cytotoxicity against human HeLa cells after 48 hrs by MTT assay. The experiment is classed as functional, cell-based.
Another experiment deals with HT-29. The experiment can be described thus: Cytotoxicity against human HT-29 cells after 48 hrs by MTT assay. The experiment is classed as functional, cell-based. To be noted: HT-29, 48 h.
The next experiment has as its system Candida albicans. The experiment can be described thus: Antimicrobial activity against Candida albicans by cup plate diffusion method. The experiment is classed as functional.
Experiment [1] can be described thus: Cytotoxicity against human PC3 cells after 48 hrs by MTT assay. The experiment is classed as functional, cell-based. The settings on record: PC-3, 48 h.
The test system of another experiment is Escherichia coli. The experiment can be described thus: Antimicrobial activity against Escherichia coli by cup plate diffusion method. The experiment is classed as functional.
The subject of a further experiment is Pseudomonas sp. The experiment can be described thus: Antimicrobial activity against Pseudomonas sp. by cup plate diffusion method. The experiment is classed as functional.
In the next experiment the test system is A549. The experiment in a line: Cytotoxicity against human A549 cells after 48 hrs by MTT assay. The experiment is classed as functional, cell-based. To be noted: A549, 48 h.
In another experiment the test system is Priestia megaterium. The experiment in a line: Antimicrobial activity against Bacillus megaterium by cup plate diffusion method. The experiment is classed as functional.
The test system of another experiment is MCF7. The experiment can be described thus: Cytotoxicity against human MCF7 cells after 48 hrs by MTT assay. To be noted: MCF7, 48 h. The experiment is classed as functional, cell-based.
The next experiment has as its system Bacillus subtilis. The experiment in a line: Antimicrobial activity against Bacillus subtilis by cup plate diffusion method. The experiment is classed as functional.

Values after ≈ are worked out from the molar mass of the structure shown. Where only a bound is given, the exact number is not on record here.

For `N#Cc1ccc(C2=NO[C@@H]3[C@H](CO)C[C@H](CO)[C@H]23)cc1`, the IC50 (in the experiment on HeLa; with HT-29; in [1]; in the experiment with A549; in the experiment on MCF7) was more than 50 µg/mL in each case. Moreover, the minimum inhibitory concentration (MIC) with Candida albicans stood at 11 µg/mL (≈ 40.4 µM); with Escherichia coli, 2.1 µg/mL (≈ 7.71 µM); against Pseudomonas sp., 2.1 µg/mL (≈ 7.71 µM); against Priestia megaterium it was 21 µg/mL (≈ 77.1 µM); against Bacillus subtilis it was 21 µg/mL (≈ 77.1 µM).
As to `COC(=O)[C@H]1C[C@@H](C(=O)OC)[C@H]2ON=C(c3ccc(Br)cc3)[C@H]21`, the IC50 with HeLa is 27.4 µg/mL (≈ 71.7 µM); in the experiment with HT-29 it was more than 50 µg/mL; in experiment [1], more than 50 µg/mL; with A549, more than 50 µg/mL; with MCF7, more than 50 µg/mL. Further, the MIC against Candida albicans, against Escherichia coli, in the experiment with Pseudomonas sp., against Priestia megaterium and with Bacillus subtilis was more than 100 µg/mL throughout.
As for `O=C(O)[C@H]1C[C@@H](C(=O)O)[C@H]2ON=C(c3ccc(Cl)cc3)[C@H]21`, the IC50 in the experiment with HeLa is 19 µg/mL (≈ 61.3 µM); in the experiment with HT-29, more than 50 µg/mL; in experiment [1], more than 50 µg/mL; in the experiment on A549, 30 µg/mL (≈ 96.9 µM); in the experiment with MCF7, 28.5 µg/mL (≈ 92 µM). For the same compound, the MIC in the experiment on Candida albicans is more than 100 µg/mL; against Escherichia coli it was more than 100 µg/mL; in the experiment on Pseudomonas sp., more than 100 µg/mL; in the experiment with Priestia megaterium, 30 µg/mL (≈ 96.9 µM); against Bacillus subtilis it was 60 µg/mL (≈ 194 µM).
Take `COC(=O)[C@H]1C[C@@H](C(=O)OC)[C@H]2ON=C(c3ccc(OC)cc3)[C@H]21`: the IC50 is more than 50 µg/mL in the experiment on HeLa; 28.9 µg/mL (≈ 86.7 µM) in the experiment on HT-29; more than 50 µg/mL in experiment [1]; more than 50 µg/mL with A549; more than 50 µg/mL in the experiment with MCF7. The MIC in the experiment with Candida albicans, in the experiment with Escherichia coli, in the experiment on Pseudomonas sp., with Priestia megaterium and with Bacillus subtilis was more than 100 µg/mL each time.
For the compound `OC[C@@H]1C[C@H](CO)[C@@H]2C(c3ccc(Br)cc3)=NO[C@H]12`, the IC50 in the experiment on HeLa is more than 50 µg/mL; in the experiment with HT-29, 37.3 µg/mL (≈ 114 µM); in experiment [1], more than 50 µg/mL; in the experiment with A549, more than 50 µg/mL; with MCF7 it was more than 50 µg/mL. For the same compound, the MIC is more than 100 µg/mL in the experiment with Candida albicans; more than 100 µg/mL in the experiment with Escherichia coli; more than 100 µg/mL against Pseudomonas sp.; 48.6 µg/mL (≈ 149 µM) against Priestia megaterium; 48.6 µg/mL (≈ 149 µM) against Bacillus subtilis.
Regarding `OC[C@@H]1C[C@H](CO)[C@@H]2C(c3ccccc3Cl)=NO[C@H]12`, the half-inhibitory concentration (IC50) was more than 50 µg/mL in the experiment on HeLa; 33.8 µg/mL (≈ 120 µM) in the experiment on HT-29; more than 50 µg/mL in experiment [1]; more than 50 µg/mL with A549; more than 50 µg/mL with MCF7. Further, the minimal inhibitory concentration (MIC) in the experiment with Candida albicans is more than 100 µg/mL; in the experiment on Escherichia coli, more than 100 µg/mL; against Pseudomonas sp., more than 100 µg/mL; with Priestia megaterium, more than 100 µg/mL; in the experiment with Bacillus subtilis it was 74.4 µg/mL (≈ 264 µM).
Take `O=C(O)[C@H]1C[C@@H](C(=O)O)[C@H]2ON=C(c3ccc(F)cc3)[C@H]21`: the IC50 (in the experiment on HeLa; in the experiment with HT-29; in experiment [1]; in the experiment on A549; in the experiment on MCF7) was more than 50 µg/mL each time. Further, the MIC against Candida albicans was more than 100 µg/mL; in the experiment with Escherichia coli, 78 µg/mL (≈ 266 µM); against Pseudomonas sp., 7.8 µg/mL (≈ 26.6 µM); in the experiment on Priestia megaterium, more than 100 µg/mL; in the experiment on Bacillus subtilis it was more than 100 µg/mL.
Take `OC[C@@H]1C[C@H](CO)[C@@H]2C(c3ccc(Cl)cc3)=NO[C@H]12`: the IC50 in the experiment with HeLa is more than 50 µg/mL; with HT-29, 22.9 µg/mL (≈ 81.3 µM); in [1], more than 50 µg/mL; in the experiment with A549, more than 50 µg/mL; with MCF7, 14.7 µg/mL (≈ 52.2 µM). The MIC against Candida albicans, in the experiment on Escherichia coli, in the experiment on Pseudomonas sp., with Priestia megaterium and against Bacillus subtilis was more than 100 µg/mL each time.
As for `COC(=O)[C@H]1C[C@@H](C(=O)OC)[C@H]2ON=C(c3ccccc3Cl)[C@H]21`, the IC50 (in the experiment on HeLa; in the experiment with HT-29; in experiment [1]; in the experiment on A549; in the experiment with MCF7) was more than 50 µg/mL each time. The MIC against Candida albicans, against Escherichia coli, against Pseudomonas sp., against Priestia megaterium and in the experiment on Bacillus subtilis was more than 100 µg/mL throughout.
As for `N#Cc1ccc(C2=NO[C@H]3[C@@H]2[C@@H](C(=O)O)C[C@H]3C(=O)O)cc1`, the IC50 in the experiment with HeLa was 33.3 µg/mL (≈ 111 µM); in the experiment on HT-29, 30.3 µg/mL (≈ 101 µM); in experiment [1], more than 50 µg/mL; in the experiment with A549 it was more than 50 µg/mL; in the experiment on MCF7 it was more than 50 µg/mL. The MIC in the experiment with Candida albicans, with Escherichia coli, against Pseudomonas sp., with Priestia megaterium and with Bacillus subtilis was more than 100 µg/mL throughout.
In the case of `O=C(O)[C@H]1C[C@@H](C(=O)O)[C@H]2ON=C(c3ccc(Br)cc3)[C@H]21`, the IC50 in the experiment on HeLa is 45.6 µg/mL (≈ 129 µM); with HT-29 it was more than 50 µg/mL; in [1], more than 50 µg/mL; with A549, more than 50 µg/mL; in the experiment with MCF7 it was more than 50 µg/mL. The MIC was determined as 8.7 µg/mL (≈ 24.6 µM) against Candida albicans; 2.2 µg/mL (≈ 6.21 µM) in the experiment with Escherichia coli; 22 µg/mL (≈ 62.1 µM) with Pseudomonas sp.; 10.5 µg/mL (≈ 29.6 µM) against Priestia megaterium; 10.5 µg/mL (≈ 29.6 µM) in the experiment with Bacillus subtilis.
Consider `COC(=O)[C@H]1C[C@@H](C(=O)OC)[C@H]2ON=C(c3ccc(C)cc3)[C@H]21`, for which the IC50 (in the experiment with HeLa; in the experiment with HT-29; in experiment [1]; in the experiment with A549; in the experiment with MCF7) was more than 50 µg/mL throughout. Further, the MIC in the experiment on Candida albicans, against Escherichia coli, with Pseudomonas sp., in the experiment on Priestia megaterium and in the experiment with Bacillus subtilis was more than 100 µg/mL each time.
`COC(=O)[C@H]1C[C@@H](C(=O)OC)[C@H]2ON=C(c3ccc(Cl)cc3)[C@H]21`: the 50% inhibitory concentration (IC50) (in the experiment on HeLa; in the experiment with HT-29; in [1]; in the experiment on A549; with MCF7) was more than 50 µg/mL throughout. For the same compound, the MIC in the experiment with Candida albicans, in the experiment on Escherichia coli, in the experiment with Pseudomonas sp., in the experiment with Priestia megaterium and against Bacillus subtilis was more than 100 µg/mL each time.
For the compound `COC(=O)[C@H]1C[C@@H](C(=O)OC)[C@H]2ON=C(c3ccc(C#N)cc3)[C@H]21`, the IC50 (in the experiment on HeLa; in the experiment on HT-29; in experiment [1]; with A549; in the experiment on MCF7) was more than 50 µg/mL throughout. For the same compound, the MIC in the experiment on Candida albicans, in the experiment on Escherichia coli, against Pseudomonas sp., against Priestia megaterium and against Bacillus subtilis was more than 100 µg/mL each time.
Take `COc1ccc(C2=NO[C@H]3[C@@H]2[C@@H](C(=O)O)C[C@H]3C(=O)O)cc1`: the IC50 (with HeLa; in the experiment on HT-29; in experiment [1]; in the experiment on A549; in the experiment on MCF7) was more than 50 µg/mL in each case. Besides, the MIC with Candida albicans, against Escherichia coli, against Pseudomonas sp., against Priestia megaterium and in the experiment on Bacillus subtilis was more than 100 µg/mL each time.
As for `COc1ccc(C2=NO[C@@H]3[C@H](CO)C[C@H](CO)[C@H]23)cc1OC`, the IC50 (in the experiment with HeLa; in the experiment on HT-29; in experiment [1]; in the experiment on A549; in the experiment on MCF7) was more than 50 µg/mL in each case. Moreover, the MIC is 4.6 µg/mL (≈ 15 µM) against Candida albicans; 0.92 µg/mL (≈ 2.99 µM) against Escherichia coli; 1.2 µg/mL (≈ 3.9 µM) against Pseudomonas sp.; 46.8 µg/mL (≈ 152 µM) against Priestia megaterium; 46.8 µg/mL (≈ 152 µM) with Bacillus subtilis.
Regarding `Cc1ccc(C2=NO[C@H]3[C@@H]2[C@@H](C(=O)O)C[C@H]3C(=O)O)cc1`, the 50% inhibitory concentration (IC50) (with HeLa; in the experiment on HT-29; in [1]; in the experiment with A549; with MCF7) was more than 50 µg/mL in each case. For the same compound, the MIC against Candida albicans, with Escherichia coli, with Pseudomonas sp., against Priestia megaterium and with Bacillus subtilis was more than 100 µg/mL in each case.
In turn, `C[C@@H]1[C@H](O)[C@@H](C)/C=C/C=C/C=C/C=C/C=C/C=C/C=C/[C@H](O[C@@H]2O[C@H](C)[C@@H](O)[C@H](N)[C@@H]2O)C[C@@H]2O[C@](O)(C[C@@H](O)C[C@@H](O)[C@H](O)CC[C@@H](O)C[C@@H](O)CC(=O)O[C@H]1C)C[C@H](O)[C@H]2C(=O)O` [AMPHOTERICIN B] gave an MIC against Candida albicans of 5 µg/mL (≈ 5.41 µM).
On to `COc1ccc(C2=NO[C@@H]3[C@H](CO)C[C@H](CO)[C@H]23)cc1`, for which the IC50 in the experiment with HeLa is more than 50 µg/mL; in the experiment on HT-29, more than 50 µg/mL; in experiment [1] it was more than 50 µg/mL; with A549 it was 36.6 µg/mL (≈ 132 µM); in the experiment with MCF7, 23.7 µg/mL (≈ 85.5 µM). The MIC against Candida albicans, against Escherichia coli, in the experiment with Pseudomonas sp., with Priestia megaterium and against Bacillus subtilis was more than 100 µg/mL throughout.
In the case of `COc1cc([C@@H]2c3cc4c(cc3[C@@H](O[C@@H]3O[C@@H]5CO[C@@H](C)O[C@H]5[C@H](O)[C@H]3O)[C@H]3COC(=O)[C@H]23)OCO4)cc(OC)c1O` [ETOPOSIDE], the IC50 with HeLa was 2.35 µg/mL (≈ 3.99 µM); in the experiment on HT-29 it was 4.21 µg/mL (≈ 7.15 µM); in experiment [1], 7.2 µg/mL (≈ 12.2 µM); in the experiment with A549 it was 8.9 µg/mL (≈ 15.1 µM); in the experiment on MCF7, 11.9 µg/mL (≈ 20.3 µM).
`CC1(C)S[C@@H]2[C@H](NC(=O)[C@H](N)c3ccccc3)C(=O)N2[C@H]1C(=O)O` [AMPICILLIN]: the MIC against Priestia megaterium and in the experiment with Bacillus subtilis was 25 µg/mL (≈ 71.5 µM) throughout.
For GENTAMICIN, the minimum inhibitory concentration (MIC) in the experiment with Escherichia coli is 2 µg/mL; against Pseudomonas sp. it was 8 µg/mL.

The values are drawn from ChEMBL document CHEMBL3739426, “Synthesis and biological evaluation of novel 2-isoxazoline fused cyclopentane derivatives as potential antimicrobial and anticancer agents” (Medchemcomm, 2015).
